{
  "source": "patent US6011010A",
  "about": "“Cytotoxic and antiviral compound” (Pharma Mar, s.a., priority 1997, dated 2000)",
  "key": {"[1]": {"test_system": "HSV II", "conditions": "Mv 1 Lu cells"}, "[2]": {"test_system": "Saccharomyces cerevisiae", "conditions": "50 μg/disk"}, "[3]": {"test_system": "VSV"}, "[4]": {"assay": "In vitro cytotoxicity, human lung carcinoma A-549 cell culture", "assay_type": "cell-based", "conditions": "read-out: Cytotoxicity μg/mL (IC50)", "experimental": "(§1) The antitumor activities of this compound have been determinated \"in vitro\" in cell cultures of human lung carcinoma A-549 and human colon carcinoma HT-29. The procedure was carried out using the methodology described by Raymond J. Bergeron et al., Biochem. Biophys. Res. Comm. 1984, 121 (3), 848-854 and by Alan C. Schroeder et al., J. Med. Chem. 1981, […] 1078-1083."}, "[5]": {"assay": "In vitro cytotoxicity, human colon carcinoma HT-29 cell culture", "assay_type": "cell-based", "conditions": "read-out: Cytotoxicity μg/mL (IC50)", "experimental": "as §1"}, "[6]": {"test_system": "HSV-1", "conditions": "CV-1 cells"}},
  "data": [
    {"molecule": "C/C=C1\\NC(=O)[C@H](Cc2ccccc2)NC(=O)[C@@H](C(C)C)NC(=O)[C@@H]([C@@H](C)CC)NC(=O)[C@H](NC(=O)[C@H](NC(=O)[C@H](CCCN)NC(=O)[C@H]2CCCN2C(=O)[C@H](NC(=O)[C@@H](NC(=O)[C@@H](NC(=O)[C@H](NC(=O)CCCC(C)C)C(C)C)[C@@H](C)O)C(C)C)C(C)C)[C@@H](C)CC)[C@@H](C)OC(=O)[C@H](C(C)C)NC1=O", "note": "[Kahalalide F]", "values": [
      {"measurement": "Antiviral % reduction", "setting": "[1]; at 0.5 μg/mL", "value": 95, "unit": "%"},
      {"measurement": "Antiviral μg/mL (M.I.C.)", "setting": "[1]; concentration giving the printed % reduction", "value": 0.5, "unit": "µg/mL"},
      {"measurement": "Antifungal 6 mm disk (zone)", "setting": "[2]", "value": "neg"},
      {"measurement": "Antiviral μg/mL (M.I.C.)", "setting": "[3]", "value": "> 8"},
      {"measurement": "IC50", "setting": "[4]", "value": 2.5, "unit": "µg/mL"},
      {"measurement": "IC50", "setting": "[5]", "value": "0.25 to 0.5", "unit": "µg/mL"},
      {"measurement": "Antiviral μg/mL (M.I.C.)", "setting": "[6]", "value": "> 8", "unit": "µg/mL"}
    ]}
  ]
}
